Where two headings read alike, the source gives them in different places.
Tests used:
[1] = tested on: HCV replicon RNA replication in Huh-7 luc/neo (Huh-Luc) cells; test: HCV replicon assay (stable replicon cell reporter assay, luciferase read-out); assay type: cell-based, HCV type 1b
Summary of the method: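 Three-day compound exposure used Huh-Luc cells, which harbour an autonomously replicating genotype 1b NS3-NS5B replicon expressing luciferase and neo^R. Luciferase signal served as the replication read-out, and dose-response curves came from several concentrations per compound.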

[2] = molecular target: T1, HCV NS5B polymerase (His-tagged, C-terminal 21 amino acid deleted NS5B, HC-J4) (Hepatitis C virus genotype 1b, UniProt O92972); test: NS5b polymerase assay (biochemical RdRp assay, 3H-GTP incorporation, SPA beads); set-up: species or system HCV genotype 1b
T1 construct: The cDNA encoding NS5B amino acid 1-570 (HC-J4, genotype 1b); His tag (His6, from pET-21b) (C); made in house; host or cells: E. coli BL21 (DE3)
Summary of the method: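 3H-GTP incorporation into newly made RNA was captured on SPA beads added in EDTA after 2 h at 25 °C. Compounds in DMSO met preformed enzyme–template complex (200 nM truncated His-NS5B, HC-J4 1b; biotin-oligo(rG13)/poly(rC)) for 15 min at RT, then 600 nM GTP, 5 mM MgCl2, Tris pH 7.5 started polymerization.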

[3] = Hepatitis C virus, Huh-7, 72 h, read-out: Replicon Assay EC50 (μM), Huh-Luc cells, incubation of three days, luciferase activity
[4] = NS5B Polymerase Assay IC50 (μM)
[5] = Hepatitis C virus, Huh-7, 72 h, read-out: Replicon Assay EC50, Huh-Luc cells, three days incubation, luciferase activity
[6] = NS5B Polymerase Assay IC50, 200 nM enzyme, 3H-GTP incorporation, 2 h at 25° C.
[7] = Huh-Luc cells, three days incubation, luciferase activity, read-out: Replicon Assay EC50
[8] = 200 nM enzyme, 3H-GTP incorporation, 2 h at 25° C., read-out: NS5B Polymerase Assay IC50

T1 sequence (O92972 2417-3000, looked up, stated change not applied): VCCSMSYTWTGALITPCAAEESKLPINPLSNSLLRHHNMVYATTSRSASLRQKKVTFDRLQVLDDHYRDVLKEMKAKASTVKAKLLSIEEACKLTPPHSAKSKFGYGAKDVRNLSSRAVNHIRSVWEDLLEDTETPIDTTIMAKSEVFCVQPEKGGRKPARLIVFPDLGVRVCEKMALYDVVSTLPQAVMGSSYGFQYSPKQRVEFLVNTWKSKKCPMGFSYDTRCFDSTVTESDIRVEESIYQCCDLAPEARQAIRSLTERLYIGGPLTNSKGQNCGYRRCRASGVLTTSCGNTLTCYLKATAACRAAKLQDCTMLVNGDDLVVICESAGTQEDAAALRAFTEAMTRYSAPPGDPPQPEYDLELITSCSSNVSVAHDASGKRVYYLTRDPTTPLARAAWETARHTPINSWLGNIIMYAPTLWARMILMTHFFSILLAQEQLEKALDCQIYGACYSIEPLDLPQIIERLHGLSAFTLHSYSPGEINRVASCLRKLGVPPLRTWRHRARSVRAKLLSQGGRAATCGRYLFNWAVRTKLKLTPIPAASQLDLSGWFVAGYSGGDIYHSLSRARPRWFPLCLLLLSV

Compound CC1(C)CC(=O)C2=C(C1)Nc1ccccc1NC2c1cccc(Oc2ccccc2Br)c1 (stereo not shown) [compound 446, 11-[3-(2-bromophenoxy)phenyl]-3,3-dimethyl-2,3,4,5,10,11-hexahydro-1H-dibenzo[b,e][1,4]diazepin-1-one] has an EC50 [1, 3] of 4.12 µM and an IC50 [2, 4] greater than 133 µM.
CC1(C)CC(=O)C2=C(C1)Nc1ccccc1NC2/C(Cl)=C/c1ccccc1 (racemic) [compound 506, 11-(1-Chloro-2-phenylvinyl)-3,3-dimethyl-2,3,4,5,10,11-hexahydro-dibenzo[b,e][1,4]diazepin-1-one] gave an EC50 [1, 3] of 56.7 µM and an IC50 [2, 4] greater than 42.7 µM.
O=C1C[C@@H](c2ccccc2)CC2=C1[C@H](c1ccc3c(c1)OCO3)Nc1ccc(C(=O)c3ccccc3)cc1N2 [compound 491] showed an EC50 [1, 3] of 12.1 µM and an IC50 [2, 4] greater than 42.7 µM.
CC1(C)CC(=O)C2=C(C1)Nc1ccccc1N(C(=O)C(F)(F)F)C2c1cccc(Cl)c1Cl (stereo not shown) [compound 25] showed an EC50 [1, 5] of 24.6 µM and an IC50 [2, 6] greater than 42.7 µM.
CC1(C)CC(=O)C2=C(C1)Nc1ccccc1N(C(=O)Cc1ccccc1)C2c1c(F)cccc1Cl (stereo not shown) [compound 69] showed an EC50 [1, 5] of 4.58 µM and an IC50 [2, 6] greater than 42.7 µM.
COc1ccc(C2C3=C(CC(c4ccc(Cl)cc4)CC3=O)Nc3ccccc3N2C(=O)C(F)(F)F)cc1 (mixture of isomers) [compound 200] showed an EC50 [1, 7] of 9.57 µM and an IC50 [2, 8] greater than 33.3 µM.
COc1ccc(C2CC(=O)C3=C(C2)Nc2ccccc2NC3c2cc(OC)c(OC)cc2OC)cc1 (stereo not shown) [compound 398] showed an EC50 [1, 3] of 10.9 µM and an IC50 [2, 4] greater than 42.7 µM.
CC(=O)N1c2ccccc2NC2=C(C(=O)CC(c3ccccc3F)C2)C1c1ccccc1 (stereo not shown) [compound 236] showed an EC50 [1, 7] of 11.8 µM and an IC50 [2, 8] greater than 42.7 µM.
In the case of COc1ccc(C2CC(=O)C3=C(C2)Nc2ccccc2NC3c2cccc(Cl)c2Cl)cc1 (stereo not shown) [compound 357], the EC50 [1, 3] is reported as 7.01 µM and the IC50 [2, 4] is reported as greater than 42.7 µM.
CC(=O)N1c2ccccc2NC2=C(C(=O)CC(C)(C)C2)C1c1ccc(Br)s1 (stereo not shown) [compound 282] gave an EC50 [1, 5] of 17 µM and an IC50 [2, 6] greater than 42.7 µM.
CCCCC(=O)N1c2ccccc2NC2=C(C(=O)CC(C)(C)C2)C1c1ccc(Cl)cc1Cl (stereo not shown) [compound 17] was tested, and the EC50 [1, 5] was 6.59 µM and the IC50 [2, 6] was greater than 42.7 µM.
In the case of CC1(C)CC(=O)C2=C(C1)Nc1ccccc1NC2c1ccc(Cl)cc1Cl (stereo not shown) [compound 423, 11-(2,4-dichlorophenyl)-2,3,4,5,10,11-hexahydro-3,3-dimethyl-1H-dibenzo[b,e][1,4]diazepin-1-one], the EC50 [1, 3] is reported as 26.4 µM and the IC50 [2, 4] is reported as 37.9 µM.
CCCCCC(=O)N1c2ccccc2NC2=C(C(=O)CC(c3ccc(C)cc3)C2)C1c1ccccc1Cl (mixture of isomers) [compound 182] gave an EC50 [1, 7] of 1.82 µM and an IC50 [2, 8] greater than 42.7 µM.
Compound CCOc1ccc(C2C3=C(CC(C)(C)CC3=O)Nc3ccccc3N2C(=O)Cc2ccc(Cl)cc2)cc1 (stereo not shown) [compound 85] has an EC50 [1, 5] of 21.4 µM and an IC50 [2, 6] greater than 42.7 µM.
For O=C1C[C@@H](c2ccc3c(c2)OCO3)CC2=C1[C@H](c1cccnc1)Nc1ccccc1N2 [compound 476], the EC50 [1, 3] was 22.9 µM and the IC50 [2, 4] was greater than 42.7 µM.
In the case of CC(=O)N1c2ccccc2NC2=C(C(=O)CC(C)(C)C2)C1c1cccc(Cl)c1 (stereo not shown) [compound 126], the EC50 [1, 5] is reported as greater than 32 µM and the IC50 [2, 6] is reported as greater than 42.7 µM.
With CCCCC(=O)N1c2ccccc2NC2=C(C(=O)CC(C)(C)C2)C1c1ccc(-c2cccc([N+](=O)[O-])c2)o1 (stereo not shown) [compound 255] the EC50 [1, 5] was 21.8 µM and the IC50 [2, 6] was greater than 42.7 µM.
O=C1CC(c2ccc(Cl)cc2)CC2=C1C(c1ccc(C(F)(F)F)cc1)Nc1ccccc1N2 (stereo not shown) [compound 377] showed an EC50 [1, 3] of 4.46 µM and an IC50 [2, 4] greater than 42.7 µM.
COc1cccc(C2Nc3ccccc3NC3=C2C(=O)CC(c2ccccc2)C3)c1 (stereo not shown) [compound 330] was tested, and the EC50 [1, 3] was 23.2 µM and the IC50 [2, 4] was greater than 42.7 µM.
Compound COc1c(Cl)cc(Cl)cc1C1C2=C(CC(C)(C)CC2=O)Nc2ccccc2N1C(=O)C(C)C (stereo not shown) [compound 62] has an EC50 [1, 5] of 22.6 µM and an IC50 [2, 6] greater than 42.7 µM.
Compound CC(C)CC(=O)N1c2ccccc2NC2=C(C(=O)CC(C)(C)C2)C1c1c(F)cccc1Cl (stereo not shown) [compound 43] has an EC50 [1, 5] of 9.17 µM and an IC50 [2, 6] greater than 42.7 µM.
In the case of CSc1ccc(C2Nc3ccccc3NC3=C2C(=O)CC(c2ccccc2)C3)cc1 (stereo not shown) [compound 362], the EC50 [1, 3] is reported as 19.3 µM and the IC50 [2, 4] is reported as 30.6 µM.
In the case of CCOc1cccc(C2Nc3ccccc3NC3=C2C(=O)CC(c2ccccc2)C3)c1 (stereo not shown) [compound 410], the EC50 [1, 3] is reported as 22.6 µM and the IC50 [2, 4] is reported as greater than 33.3 µM.
For COc1ccc(C2C3=C(CC(C)(C)CC3=O)Nc3ccccc3N2C(=O)c2ccc(F)cc2)cc1 (stereo not shown) [compound 33], the EC50 [1, 5] was 24.7 µM and the IC50 [2, 6] was greater than 42.6 µM.
Compound COc1ccc(C2CC(=O)C3=C(C2)Nc2ccccc2NC3c2cccc(O)c2)cc1 (stereo not shown) [compound 392] has an EC50 [1, 3] of 22.6 µM and an IC50 [2, 4] greater than 42.7 µM.
With CC1CC(=O)C2=C(C1)Nc1ccccc1NC2c1ccc(Cl)cc1Cl (stereo not shown) [compound 422, 11-(2,4-dichlorophenyl)-3-methyl-2,3,4,5,10,11-hexahydro-1H-dibenzo[b,e][1,4]diazepin-1-one] the EC50 [1, 3] was greater than 100 µM and the IC50 [2, 4] was greater than 133 µM.
CC(=O)N1c2ccccc2NC2=C(C(=O)CC(C)(C)C2)C1c1cccc(Cl)c1Cl (stereo not shown) [compound 29] was tested, and the EC50 [1, 5] was 6.79 µM and the IC50 [2, 6] was greater than 42.7 µM.
CC(C)CC(=O)N1c2ccccc2NC2=C(C(=O)CC(C)(C)C2)C1c1cccnc1 (stereo not shown) [compound 270] was tested, and the EC50 [1, 5] was 25.5 µM and the IC50 [2, 6] was greater than 33.3 µM.
With CC(=O)N1c2ccccc2NC2=C(C(=O)CC(C)(C)C2)C1c1c(Cl)cc(OCc2ccccc2)cc1Cl (stereo not shown) [compound 150, 10-acetyl-11-(4-benzyloxy-2,6-dichlorophenyl)-3,3-dimethyl-2,3,4,5,10,11-hexahydro-1H-dibenzo[b,e][1,4]diazepin-1-one] the EC50 [1, 5] was 1.69 µM and the IC50 [2, 6] was greater than 133 µM.
CC1(C)CC(=O)C2=C(C1)Nc1ccccc1NC2c1cc(Cl)c(OCc2ccccc2)c(Cl)c1 (stereo not shown) [compound 444, 11-[4-benzyloxy-3,5-dichlorophenyl]-3,3-dimethyl-2,3,4,5,10,11-hexahydro-1H-dibenzo[b,e][1,4]diazepin-1-one] gave an EC50 [1, 3] of 4.45 µM and an IC50 [2, 4] of 33.2 µM.
In the case of CC(=O)N1c2ccccc2NC2=C(C(=O)CC(C)(C)C2)C1c1ccc(Oc2ccccc2Br)cc1 (stereo not shown) [compound 147, 10-acetyl-11-[4-(2-bromophenoxy)phenyl]-3,3-dimethyl-2,3,4,5,10,11-hexahydro-1H-dibenzo[b,e][1,4]diazepin-1-one], the EC50 [1, 5] is reported as 4.22 µM and the IC50 [2, 6] is reported as 1.97 µM.
COc1ccc([C@@H]2CC(=O)C3=C(C2)Nc2ccccc2N[C@H]3c2cc3c(cc2Br)OCO3)cc1 [compound 486] gave an EC50 [1, 3] of 3.31 µM and an IC50 [2, 4] greater than 42.7 µM.
CC1(C)CC(=O)C2=C(C1)Nc1ccccc1N(C(=O)C(F)(F)F)C2c1ccco1 (stereo not shown) [compound 276] gave an EC50 [1, 5] greater than 32 µM and an IC50 [2, 6] greater than 42.7 µM.
Work on CC1(C)CC(=O)C2=C(C1)Nc1ccc(C#N)cc1NC2c1ccc(Cl)cc1Cl (stereo not shown) [compound 473] yielded an EC50 [1, 3] of 20 µM and an IC50 [2, 4] of 50 µM.
CC1(C)CC(=O)C2=C(C1)Nc1ccccc1N(C(=O)C(F)(F)F)C2c1cccs1 (stereo not shown) [compound 267] was tested, and the EC50 [1, 5] was 9.39 µM and the IC50 [2, 6] was greater than 42.7 µM.
For Cn1cccc1C1C2=C(CC(C)(C)CC2=O)Nc2ccccc2N1C(=O)C(F)(F)F (stereo not shown) [compound 260], the EC50 [1, 5] was 22.5 µM and the IC50 [2, 6] was greater than 42.7 µM.
Work on CCCN1c2ccccc2NC2=C(C(=O)CC(C)(C)C2)C1c1ccc(Cl)cc1Cl (stereo not shown) [compound 509, 11-(2,4-Dichlorophenyl)-2,3,4,5,10,11-hexahydro-3,3-dimethyl-10-propyl-1H-dibenzo[b,e][1,4]diazepin-1-one] yielded an EC50 [1, 3] of 0.894 µM and an IC50 [2, 4] greater than 42.7 µM.
With CCN(CC)c1ccc(C2C3=C(CC(C)(C)CC3=O)Nc3ccccc3N2C(C)=O)cc1 (stereo not shown) [compound 131] the EC50 [1, 5] was greater than 32 µM and the IC50 [2, 6] was greater than 42.7 µM.
